Data taken from patent US6583154B1, “Compounds and methods which modulate feeding behavior and related diseases” (Amgen Inc., priority 1998, dated 2003).
Counter-ions that a name gives are not always drawn.

SMILES	melting point
Cc1nc(N2CCCCC2CCO)c2[nH]c(-c3ccccc3)cc2n1 (stereo not shown) (as salt: hydrochloride) [Example 62, 2-Methyl-6-phenyl-4-(2-piperidineethanolyl)pyrrolo(3,2-d)pyrimidine Hydrochloride]	273 to 273.5 °C
Cc1nc(N2[C@H](C)CCC[C@@H]2C)c2[nH]c(-c3ccccc3)cc2n1 (as salt: hydrochloride) [Example 185, 4-((6S, 2R)-2,6-Dimethyl)-2-methyl-6-phenylpyrrolo[3,2-d]pyrimidine Hydrochloride]	> 270 °C
Cl.c1cnc(-c2cc3ncnc(N4CCCCC4)c3[nH]2)cn1 (hydrate or solvate)	> 280 °C
CCc1nc(N2CCc3ccccc3C2)c2[nH]c(-c3ccccc3)cc2n1 (as salt: hydrochloride) (hydrate or solvate) [Example 202, 2-Ethyl-6-phenyl-4-(2-1,2,3,4-tetrahydroisoquinolyl)pyrrolo[3,2-d]pyrimidine Hydrochloride Monohydrate]	170 to 171.5 °C
Cl.c1coc(-c2cc3ncnc(N4CCCCC4)c3[nH]2)c1	> 280 °C
Cc1nc(N2CCCCC2)c2[nH]c(-c3ccc4c(c3)CCO4)cc2n1.Cl (hydrate or solvate) [Example 131, 5-[2-Methyl-4-piperidylpyrrolo[4,5-d]pyrimidin-6-yl]-2,3-dihydrobenzo[b]furan Hydrochloride Hydrate]	170 to 172 °C
Cc1c(-c2ccccc2)n(C)c2c(N3CCCCC3)ncnc12 [Example 155, 5,7-Dimethyl-6-phenyl-4-piperidylpyrrolo[3,2-d]pyrimidine]	123 to 125 °C
Cc1nc(N2CCCCC2)c2[nH]c(-c3cc(F)cc(F)c3)c(C)c2n1.Cl (hydrate or solvate)	242 to 245 °C
Cc1nc(-n2cccn2)c2[nH]c(-c3ccccc3)cc2n1 (as salt: hydrochloride) (hydrate or solvate) [Example 218, 2-Methyl-6-phenyl-4-pyrazolypyrrolo[3,2-d]pyrimidine Hydrochloride Hydrate]	253 to 254 °C
Cc1nc(N2CCCCC2C)c2[nH]c(-c3ccc(F)cc3)cc2n1.Cl (stereo not shown) (hydrate or solvate)	274 to 276 °C
Cc1nc2c3c(cc(-c4ccccc4)n3CC3CCCCN23)n1.Cl (stereo not shown) (hydrate or solvate)	> 280 °C
Cc1nc(N2CCCCC2)c2[nH]c(C3CCCCC3)cc2n1.Cl (hydrate or solvate) [Example 80d, 6-Cyclohexyl-2-methyl-4-piperidylpyrrolo[3,2-d]pyrimidine Hydrochloride Hydrate]	> 280 °C
Cc1nc(NCc2ccc(C)o2)c2[nH]c(-c3ccccc3)cc2n1 [Example 17]	125 to 127.5 °C
Cc1nc(NCc2ccccc2)c2[nH]c(-c3ccccc3)cc2n1 [Example 29, (2-Methyl-6-phenylpyrrolo[2,3-e]pyrimidin-4-yl)benyzlamine]	275 to 276.5 °C
Cc1nc(N2CCCCC2)c2[nH]c(-c3cc(C)sc3C)cc2n1.Cl (hydrate or solvate)	240 to 241.5 °C
Cc1nc(N2CCCCC2)c2[nH]c(-c3ccc4c(c3)CCCC4)cc2n1.Cl (hydrate or solvate)	175 to 177 °C
Cc1nc(N2CCCCC2)c2[nH]c(C(C)(C)C)cc2n1.Cl (hydrate or solvate) [Example 97, 6-(tert-Butyl)-2-methyl-4-piperidylpyrrolo[3,2-d]pyrimidine Hydrochloride Hydrate]	256 to 258 °C
Cc1nc(N2CCNCC2)c2[nH]c(-c3ccccc3)cc2n1 [Example 26, 2-methyl-6-phenyl-4-piperazinylpyrrolo[3,2-d]pyrimidine]	236 °C
Cc1nc(N2CCCCC2C)c2[nH]c(-c3ccccc3)cc2n1 (stereo not shown) (as salt: hydrochloride) (hydrate or solvate) [Example 63, 2-Methyl-6-phenyl-4-(2-methylpiperidinyl)pyrrolo(3,2-d)pyrimidine Hydrochloride Monohydrate]	268 to 269 °C
Cc1ccc2sc(-c3cc4nc(C)nc(N5CCCCC5)c4[nH]3)c(C)c2c1.Cl (hydrate or solvate)	> 280 °C
Cc1nc(N2CC=CCC2)c2[nH]c(-c3ccccc3)cc2n1 (as salt: hydrochloride) [Example 65, 2-Methyl-6-phenyl-4-(1,2,3,6-tetrahydropyridinyl)pyrrolo[3,2-d]pyrimidine Hydrochloride]	278 to 279 °C
COc1cccc2cc(-c3cc4nc(C)nc(N5CCCCC5)c4[nH]3)oc12.Cl (hydrate or solvate)	> 280 °C
COc1ccc(-c2cc3nc(C)nc(N4CCCCC4)c3[nH]2)cc1.Cl (hydrate or solvate) [Example 71e, 4-Methoxy-1-(2-methyl-4-piperidylpyrrolo[4,5-d]pyrimidin-6-yl)benzene Hydrochloride Monohydrate]	267.5 to 268 °C (dec.)
Cc1nc(N2CCCCC2)c2sc(-c3ccc(F)cc3)cc2n1 (as salt: hydrochloride) (hydrate or solvate) [Example 217, 6-(4-Fluorophenyl)-2-methyl-4-piperidylthiopheno[3,2-d]pyrimidine Hydrochloride Hydrate]	285 to 287 °C
COc1cccc(-c2cc3nc(C)nc(N4CCCCC4)c3[nH]2)c1.Cl (hydrate or solvate)	241 to 243 °C
COc1ccc(-c2cc3nc(C)nc(N4CCCCC4)c3[nH]2)cc1OC.Cl (hydrate or solvate) [Example 126, 1,2-Dimethoxy-4-(2-methyl-4-piperidylpyrrolo[4,5-d]pyrimidin-6-yl)benzene Hydrochloride Hydrate]	268 to 270 °C
Cc1nc(N2CC=CC2)c2[nH]c(-c3ccccc3)cc2n1 (as salt: hydrochloride) (hydrate or solvate) [Example 61, 2-Methyl-6-phenyl-4-(pyrrolinyl)pyrrolo[3,2-d]pyrimidine Hydrochloride Monohydrate]	278 to 278.3 °C

Results, then the compound that gave them:

melting point	SMILES
> 275 °C	Cc1nc(N2CCCCC2)c2[nH]c(-c3cccc(N)c3)cc2n1 (as salt: hydrochloride) (hydrate or solvate) [Example 187, 3-(2-Methyl-4-piperidylpyrrolo[4,5-d]pyrimidin-6-yl)phenylamine Hydrochloride Monohydrate]
> 280 °C	Cc1nc(N2CCCCC2)c2[nH]c(-c3cnn(-c4ccccc4)c3C)cc2n1.Cl (hydrate or solvate)
259 to 261.5 °C	c1ccc(-c2nc(N3CCCCC3)c3[nH]c(-c4ccccc4)cc3n2)cc1 [Example 45d, 2,6-Diphenyl-4-piperidylpyrrolo[3,2-d]pyrimidine]
240 to 241.5 °C	Cc1nc(N2CCCCC2)c2[nH]c(-c3ccccc3Cl)cc2n1.Cl (hydrate or solvate)
> 280 °C	Cc1nc(N2CCCCC2)c2[nH]c(-c3ccc(O)cc3)c(C)c2n1.Cl (hydrate or solvate) [Example 137, 4-[2,7-Dimethyl-4-piperidylpyrrolo[4,5-d]pyrimidin-6-yl]phenol Hydrochloride Hydrate]
131 to 132 °C	Cc1nc(N2CCCCC2)c2c(cc(-c3ccccc3)n2C)n1 [Example 36, 2,5-Dimethyl-6-phenyl-4-piperidylpyrrolo[3,2-d]pyrimidine]
226 to 229.5 °C	CC(C)Cc1nc(N2CCCCC2)c2[nH]c(-c3ccccc3)cc2n1 (as salt: hydrochloride) (hydrate or solvate)
269.5 to 272 °C	CC(C)c1nc(N2CCCCC2)c2[nH]c(-c3ccccc3)cc2n1 [Example 19d, 2-Isopropyl-6-phenyl-4-piperidylpyrrolo[3,2-d]pyrimidine]
> 300 °C	Cc1nc(N2CCc3ccccc32)c2[nH]c(-c3ccccc3)cc2n1 (as salt: hydrochloride) (hydrate or solvate) [Example 215, 4-Indolinyl-2-methyl-6-phenylpyrrolo[3,2-d]pyrimidine Hydrochloride Hydrate]
> 280 °C	Cc1nc(N2CCCCC2)c2[nH]c(-c3ccc(F)cc3)c(C)c2n1.Cl (hydrate or solvate) [Example 134, 6-(4-Fluorophenyl)-2,7-dimethyl-4-piperidylpyrrolo[3,2-d]pyrimidine Hydrochloride Hydrate]
> 280 °C	Cc1nc(N2CCCCC2)c2[nH]c(C)c(-c3ccc(F)cc3)c2n1.Cl
> 280 °C	Cc1nc(N2CCCCC2)c2[nH]c(-c3ccc(N)cc3)cc2n1 (as salt: hydrochloride)
> 280 °C	Cc1nc(N2CCCCC2)c2[nH]c(-c3cc4ccccc4s3)cc2n1.Cl (hydrate or solvate)
170 °C (dec.)	COc1ccc(-c2c(C)[nH]c3c(N4CCCCC4)nc(C)nc23)cc1.Cl (hydrate or solvate)
> 280 °C	Cc1nc(N2CCCCC2)c2[nH]c(-c3ccccc3)c(F)c2n1.Cl
169 to 171 °C	Cc1nc(N2CCCCC2)c2[nH]c(-c3ccccc3)c(-c3ccccc3)c2n1.Cl (hydrate or solvate)
261 to 263 °C	CCc1c(-c2ccccc2)[nH]c2c(N3CCCCC3)nc(C)nc12.Cl (hydrate or solvate)
> 300 °C (dec.)	Cc1nc(N2CCC2)c2[nH]c(-c3ccccc3)cc2n1.Cl (hydrate or solvate)
> 280 °C	Cc1nc(N2CCCCC2)c2[nH]c(C)c(Oc3ccccc3)c2n1.Cl (hydrate or solvate)
